Consider 7 compounds from paper PMC12034907 (Journal of Clinical Pharmacology, 2024).

Entries after “also recorded” stand apart in the source; their conditions may differ. Where two headings read alike, the source gives them in different places. Marks after values point to notes of the source that are not given here. Some results are limits rather than exact numbers.

Series [1] has as its system CYP3A4.
Series [2] is described as follows: Clinical DDI study: safety and tolerability. The class given is in vivo, human. To be noted: for AEs leading to death / AEs leading to treatment discontinuation / Related AEs / Serious AEs / Severity of AE: Mild / Severity of AE: Moderate / Severity of AE: Severe / AEs: by period, safety population; for AEs: participants who experienced AEs.
Series [3] deals with CYP2C19. The following applies: liver metabolism; cited from earlier work.
The test system of series [4] is CYP3A4. The following applies: liver metabolism; cited from earlier work.
The subject of series [5] is CYP2C9. The following applies: liver metabolism; cited from earlier work.
The conditions of series [6]: cited from earlier work.
The subject of series [7] is CYP3A. The following applies: cited from earlier work; for midazolam exposure relative to baseline exposure: studies with CYP3A inducers; for effect of CYP3A inhibitor on midazolam exposure: interaction studies.
Setting [8] is: midazolam 5 mg + mavacamten 15 mg on day 17, geometric mean (geometric CV%).
Where [9] appears, read: midazolam 5 mg oral alone (day 1), geometric mean (geometric CV%).
The mark [10] stands for this setting: with mavacamten vs midazolam alone.

Turning to `OCc1ncc2n1-c1ccc(Cl)cc1C(c1ccccc1F)=NC2` [1′‐Hydroxymidazolam, 1′‐hydroxymidazolam], the “tmax, median (range)” value (midazolam 5 mg + mavacamten 15 mg on day 17, n = 12) is listed as 0.51 (0.50‐1.0) h. Moreover, under setting [8], the AUC0-inf is on record as 47.76 (36.3) (n = 7) ^b ng∙h/mL and the t1/2 is 5.22 (29.9) (n = 7) ^b h. In addition, the “tmax, median (range)” value (midazolam 5 mg oral alone (day 1), n = 13) is on record as 1.00 (0.50‐2.08) h. The AUC0-last (midazolam 5 mg oral alone (day 1), n = 13, geometric mean (geometric CV%)) was 38.63 (22.2) ng∙h/mL. Moreover, under setting [9], the AUC0-inf is reported as 41.47 (24.1) (n = 10) ^b ng∙h/mL and the t1/2 was 6.48 (24.7) (n = 10) ^b h. In series [1] (setting [10]), the “increase in AUC0-inf” value was 20%, the “increase in AUC0-last” value was found to be 11% and the “increase in Cmax” value is 28%.
As for `CC(C)n1c(=O)cc(N[C@@H](C)c2ccccc2)[nH]c1=O` [Mavacamten], in series [2], the “AEs leading to death” value is listed as 0 n (%), the “AEs leading to treatment discontinuation” value is 0 n (%), the “Related AEs” value was 5 (38.5) n (%) and the “Serious AEs” value is 0 n (%). Also, in series [2], the “Severity of AE: Mild” value is on record as 9 (69.2) n (%), the “Severity of AE: Moderate” value was 1 (7.7) n (%), the “Severity of AE: Severe” value is reported as 0 n (%) and the AEs is given as 9 (69.2) n (%). In series [2] (healthy participants), the tolerability result is given as “well tolerated”. Further, in series [3], the “share of metabolism by CYP2C19” value is on record as 74%. Also, in series [4], the “share of metabolism by CYP3A4” value is recorded as 18%. In series [5], the “share of metabolism by CYP2C9” value is 8%. In series [6], the estimated oral bioavailability result is “at least 85%” and the “median time to maximum plasma concentration (tmax)” value is 1 to 2 h. Further, the “effect of mavacamten on midazolam exposure (CYP3A4 induction)” value in series [1] (clinically relevant mavacamten exposures, healthy participants) was “negligible effect; also recorded: did not meet the criteria for induction”.
For the compound `Cc1ncc2n1-c1ccc(Cl)cc1C(c1ccccc1F)=NC2` [Midazolam], in series [2], the “AEs leading to death” value is 0 n (%), the “AEs leading to treatment discontinuation” value was 0 n (%), the “Related AEs” value is 2 (15.4) n (%) and the “Serious AEs” value is listed as 0 n (%). Besides, in series [2], the “Severity of AE: Mild” value is given as 3 (23.1) n (%), the “Severity of AE: Moderate” value was 0 n (%), the “Severity of AE: Severe” value was 0 n (%) and the AEs was 3 (23.1) n (%). Further, under “human, plasma, oral, tmax, midazolam alone or with mavacamten”, the Tmax was less than 1 h. For the same compound, the AUC(0-t) (human, plasma, po, 5 mg) was found to be 0.051 µg·h/mL. In addition, the t1/2 under setting [8] is recorded as 4.84 (34.4) (n = 9) ^a h. Further, the t1/2 under setting [9] is 5.28 (39.3) h. In series [1] (setting [10]), the “decrease in AUC0-inf” value is given as 13%, the “decrease in AUC0-last” value is reported as 24% and the “decrease in Cmax” value amounted to 7%.
Take `NC(=O)N1c2ccccc2C=Cc2ccccc21` [carbamazepine]: in series [7], the “midazolam exposure relative to baseline exposure” value is listed as “below 10%”.
On to `CC(=O)N1CCN(c2ccc(OCC3COC(Cn4ccnc4)(c4ccc(Cl)cc4Cl)O3)cc2)CC1` (centres unmarked) [ketoconazole], for which the “effect of CYP3A inhibitor on midazolam exposure” value in series [7] is given as “increases in midazolam exposure”.
As for `O=C1NC(=O)C(c2ccccc2)(c2ccccc2)N1` [phenytoin], the “midazolam exposure relative to baseline exposure” value in series [7] is reported as “below 10%”.
Regarding `C[C@@H](c1ncncc1F)[C@](O)(Cn1cncn1)c1ccc(F)cc1F` [voriconazole], the “effect of CYP3A inhibitor on midazolam exposure” value in series [7] is given as “increases in midazolam exposure”.

A word on the Tmax: it is the time at which the peak concentration occurs. Broadly, the AUC(0-t) is exposure summed from dosing to a finite time, without extrapolation to infinity. A high value points to high exposure.
